What was measured:
[1] = system: cnidarian sting blistering inflammation; test: Live jelly sting test, blistering inflammation; assay type: in vivo
hemolytic toxins = conditions: 10 mM d-lactulose; cited from earlier work
[2] = system: live Alatina alata tentacles on human RBC agar; test: RBC agar slide hemolysis by live Alatina alata tentacles; assay type: cell-based; conditions: 10 μM in agar slide, 2% fresh human RBC, 37° C., one hour
Procedure: 2-20 mm sections of fresh live Alatina alata tentacles were placed on top of freshly prepared RBC agar slide (3% NuSieve GTG low melting agarose, 150 mM NaCl with 2% fresh human RBC). Slides were incubated at 37° C. for one hour. Zones of hemolysis are observed in control slide (FIG. 5, left) but not in slides prepared with 10 μM Copper Gluconate (3% NuSieve GTG low melting agarose, 150 mM NaCl, 10 μM Copper Gluconate with 2% fresh human RBC) (FIG. 5, right). A zone of hemolysis indicates lysis of the red blood cells.

[3] = system: fire ant venom-induced hemolysis of RBCs; test: Live time microscopic imaging of fire ant venom-induced hemolysis of RBCs; assay type: cell-based, human; conditions: 10 ng/μL fire ant venom, 1 μM copper gluconate, single dose
[4] = system: fire ant venom (Solenopsis invicta) induced hemolysis of human red blood cells (RBCs); assay type: cell-based
[5] = system: box jellyfish venom (Alatina alata) induced hemolysis of human RBCs; test: Inhibition of box jellyfish venom induced hemolysis of human RBCs; assay type: cell-based; conditions: for concentration at which active for box jellyfish venom inhibition: 5 units/mL/% RBC box jellyfish venom, 1 hour, 37° C., active at this concentration or greater

O=C(Nc1ccc(Cl)cc1)Nc1ccc(Cl)c(Cl)c1 [TCC, triclocarban]
resolution of blistering inflammation ([1]; 1% TCC in vanacreme, topical, untreated test lasted up to 72 hr): fully resolving the blistering inflammation
time to resolve blistering inflammation ([1]; after application of a live jelly in a sting test): ≤ 90 min

OC[C@H]1O[C@@H](O[C@@H]2[C@@H](CO)O[C@](O)(CO)[C@H]2O)[C@H](O)[C@@H](O)[C@H]1O [d-lactulose]
hemolysis (hemolytic toxins): dramatic absence of hemolysis

copper gluconate
zones of hemolysis observed [2]: not
slowing of hemolysis [3]: 6 fold
concentration at which active for fire ant venom inhibition [4]: approximately 3 μM
efficacy relative to zinc gluconate in the inhibition of ant venom [4]: approximately 10,000 times
potency relative to zinc gluconate alone in inhibiting box jellyfish venom [5]: approximately 10 times
concentration at which active for box jellyfish venom inhibition [5]: approximately 30 μM

zinc gluconate
concentration at which active for fire ant venom inhibition [4]: approximately 25 mM
effect on hemolysis at early time points [4]: potently stimulated hemolysis
concentration at which active for box jellyfish venom inhibition [5]: approximately 300 μM
